Laboratory results as given in patent US20140309244A1, “NOVEL MICROBIOCIDES” (SYNGENTA PARTICIPATIONS AG, priority 2010, published 2014).

Tests used:
[1] = system: Puccinia recondita f. sp. tritici; test: Puccinia recondita f. sp. tritici / wheat / leaf disc preventative (brown rust); assay type: in vivo; conditions: foliar, wheat cv Kanzler leaf segments, inoculated 1 day after application, assessed 7-9 days after application, read-out: control of Puccinia recondita f. sp. tritici (percent disease control compared to untreated)
Protocol: Puccinia recondita f. sp. tritici/Wheat/Leaf Disc Preventative (Brown Rust) Wheat leaf segments cultivated variety (cv) Kanzler were placed on agar in 24-well plates and sprayed with formulated test compound diluted in water at an application rate of 200 ppm. The leaf disks were inoculated with a spore suspension of the fungus 1 day after application. The inoculated leaf segments were incubated at 19° C. and 75% relative humidity under a light regime of 12/12 h (light/dark) in a climate cabinet and the activity of a compound was assessed as percent disease control compared to untreated when an appropriate level of disease damage appears in untreated check leaf segments (7-9 days after application). […].103

[2] = system: Puccinia recondita f. sp. tritici; test: Puccinia recondita f. sp. tritici / wheat / leaf disc curative (brown rust); assay type: in vivo; conditions: foliar, wheat cv Kanzler leaf segments, applied 1 day after inoculation, assessed 6-8 days after application, read-out: control of Puccinia recondita f. sp. tritici (percent disease control compared to untreated)
Protocol: Puccinia recondita f. sp. tritici/Wheat/Leaf Disc Curative (Brown Rust): Wheat leaf segments cv Kanzler were placed on agar in 24-well plates. The leaf segments were inoculated with a spore suspension of the fungus. The plates were stored in darkness at 19° C. and 75% relative humidity. The formulated test compound diluted in water was applied at an application rate of 200 ppm 1 day after inoculation.

[3] = system: Phaeosphaeria nodorum (Septoria nodorum); test: Phaeosphaeria nodorum (Septoria nodorum) / wheat / leaf disc preventative (glume blotch); assay type: in vivo; conditions: Parastagonospora nodorum, foliar, wheat cv Kanzler leaf segments, inoculated 2 days after application, assessed 5-7 days after application, read-out: control of Phaeosphaeria nodorum (percent disease control compared to untreated)
Pyrenophora teres = Pyrenophora teres / barley / leaf disc preventative (net blotch); assay type: in vivo; conditions: foliar, barley cv Hasso leaf segments, inoculated two days after application, assessed 5-7 days after application, read-out: control of Pyrenophora teres (disease control compared to untreated)
[4] = system: Botryotinia fuckeliana (Botrytis cinerea); test: Botryotinia fuckeliana (Botrytis cinerea) / liquid culture (gray mould); assay type: cell-based; conditions: Vogels broth, 96-well plate, 24° C., 3-4 days after application, read-out: control of Botryotinia fuckeliana (inhibition of growth, photometric)
[5] = system: Glomerella lagenarium (Colletotrichum lagenarium); test: Glomerella lagenarium (Colletotrichum lagenarium) / liquid culture (anthracnose); assay type: cell-based; conditions: Colletotrichum orbiculare, PDB potato dextrose broth, 96-well plate, 24° C., 3-4 days after application, read-out: control of Glomerella lagenarium (inhibition of growth, photometric)
[6] = system: Mycosphaerella arachidis (Cercospora arachidicola); test: Mycosphaerella arachidis (Cercospora arachidicola) / liquid culture (early leaf spot); assay type: cell-based; conditions: PDB potato dextrose broth, 96-well plate, 24° C., 4-5 days after application, read-out: control of Mycosphaerella arachidis (inhibition of growth, photometric)
[7] = system: Mycosphaerella graminicola (Septoria tritici); test: Mycosphaerella graminicola (Septoria tritici) / liquid culture (Septoria blotch); assay type: cell-based; conditions: Zymoseptoria tritici, PDB potato dextrose broth, 96-well plate, 24° C., 4-5 days after application, read-out: control of Mycosphaerella graminicola (inhibition of growth, photometric)
[8] = system: Blumeria graminis f. sp. tritici (Erysiphe graminis f. sp. tritici); test: Blumeria graminis f. sp. tritici (Erysiphe graminis f. sp. tritici) / wheat / leaf disc preventative (powdery mildew on wheat); assay type: in vivo; conditions: foliar, wheat cv. Kanzler leaf segments, inoculated 1 day after application, assessed 6-8 days after application, read-out: control of Blumeria graminis (percent disease control compared to untreated)
[9] = system: Thanatephorus cucumeris (Rhizoctonia solani); test: Thanatephorus cucumeris (Rhizoctonia solani) / liquid culture (foot rot, damping-off); assay type: cell-based; conditions: liquid culture of mycelia fragments, PDB potato dextrose broth, 96-well plate, 24° C., 3-4 days after application, read-out: control of Thanatephorus cucumeris (inhibition of growth, photometric)
Protocol: Thanatephorus cucumeris (Rhizoctonia solani)/Liquid Culture (Foot Rot, Damping-Off): Mycelia fragments of a newly grown liquid culture of the fungus are directly mixed into nutrient broth (PDB potato dextrose broth). After placing a DMSO solution of the test compounds into a 96-well microtiter plate at an application rate of 200 ppm, the nutrient broth containing the fungal material was added. The test plates were incubated at 24° C. and the inhibition of growth was determined photometrically 3-4 days after application.

[10] = system: Monographella nivalis (Microdochium nivale); test: Monographella nivalis (Microdochium nivale) / liquid culture (foot rot cereals); assay type: cell-based; conditions: PDB potato dextrose broth, 96-well plate, 24° C., 4-5 days after application, read-out: control of Monographella nivalis (inhibition of growth, photometric)
Protocol: Monographella nivalis (Microdochium nivale)/Liquid Culture (Foot Rot Cereals): Conidia of the fungus from cryogenic storage were directly mixed into nutrient broth (PDB potato dextrose broth). After placing a DMSO solution of test compound into a 96-well microtiter plate at an application rate of 200 ppm, the nutrient broth containing the fungal spores was added. The test plates were incubated at 24° C. and the inhibition of growth was determined photometrically 4-5 days after application. […].103

Gaeumannomyces graminis = Gaeumannomyces graminis / liquid culture (take-all of cereals); assay type: cell-based; conditions: liquid culture of mycelial fragments, PDB potato dextrose broth, 96-well plate, 24° C., 4-5 days after application, read-out: control of Gaeumannomyces graminis (inhibition of growth, photometric)

CCO/N=C(\C)c1cccc(CCCO/N=C(\C)c2cccc(C)n2)n1 [P.01]
≥ 80%: pest or weed control at 200 ppm [1] | pest or weed control at 200 ppm [2] | pest or weed control at 200 ppm [3] | pest or weed control at 200 ppm (Pyrenophora teres) | inhibition at 200 ppm [4] | inhibition at 200 ppm [5] | inhibition at 200 ppm [6] | inhibition at 200 ppm [7] | pest or weed control at 200 ppm [8]

CO/N=C(\C)c1cccc(CC(C)CO/N=C(\C)c2cccc(C)n2)n1 (stereo not drawn) [P.03]
≥ 80%: pest or weed control at 200 ppm [1] | pest or weed control at 200 ppm [2] | pest or weed control at 200 ppm [3] | pest or weed control at 200 ppm (Pyrenophora teres) | inhibition at 200 ppm [4] | inhibition at 200 ppm [5] | inhibition at 200 ppm [6] | inhibition at 200 ppm [7] | inhibition at 200 ppm [9] | inhibition at 200 ppm [10] | pest or weed control at 200 ppm [8]

CO/N=C(\C)c1cccc(CCCO/N=C(\C)c2cccc(-c3ccccc3OC)n2)n1 [P.08]
≥ 80%: pest or weed control at 200 ppm [1] | pest or weed control at 200 ppm [2] | pest or weed control at 200 ppm [3] | pest or weed control at 200 ppm (Pyrenophora teres) | inhibition at 200 ppm [4] | inhibition at 200 ppm [6] | inhibition at 200 ppm [7] | inhibition at 200 ppm [10] | pest or weed control at 200 ppm [8]

C=CCO/N=C(\C)c1cccc(CCCO/N=C(\C)c2cccc(C)n2)n1 [P.09]
≥ 80%: pest or weed control at 200 ppm [1] | pest or weed control at 200 ppm [2] | pest or weed control at 200 ppm [3] | pest or weed control at 200 ppm (Pyrenophora teres) | inhibition at 200 ppm [4] | inhibition at 200 ppm [5] | inhibition at 200 ppm [6] | inhibition at 200 ppm [7] | inhibition at 200 ppm [10] | pest or weed control at 200 ppm [8]

CO/N=C(\C)c1cccc(CCCO/N=C(\C)c2cccc(-c3cccc(OC)c3)n2)n1 [P.14]
≥ 80%: pest or weed control at 200 ppm [1] | pest or weed control at 200 ppm [3] | pest or weed control at 200 ppm (Pyrenophora teres) | inhibition at 200 ppm [6] | inhibition at 200 ppm [7] | inhibition at 200 ppm (Gaeumannomyces graminis)

CCc1cccc(/C(C)=N/OCCCc2cccc(/C(C)=N/OC)n2)n1 [P.19]
≥ 80%: pest or weed control at 200 ppm [2] | pest or weed control at 200 ppm [3] | pest or weed control at 200 ppm (Pyrenophora teres) | inhibition at 200 ppm [4] | inhibition at 200 ppm [6] | inhibition at 200 ppm [7] | inhibition at 200 ppm [9]

CC/C(=N\OC)c1cccc(CCCO/N=C(\C)c2cccc(C)n2)n1 [P.22]
≥ 80%: pest or weed control at 200 ppm [1] | pest or weed control at 200 ppm [2] | pest or weed control at 200 ppm [3] | pest or weed control at 200 ppm (Pyrenophora teres) | inhibition at 200 ppm [4] | inhibition at 200 ppm [5] | inhibition at 200 ppm [6] | inhibition at 200 ppm [7] | inhibition at 200 ppm (Gaeumannomyces graminis) | inhibition at 200 ppm [10] | pest or weed control at 200 ppm [8]

CO/N=C(\C)c1cccc(CCCO/N=C(/c2ccccn2)c2ncc(C(F)(F)F)cc2Cl)n1 [P.51]
≥ 80%: pest or weed control at 200 ppm [3] | inhibition at 200 ppm [4] | inhibition at 200 ppm [5] | inhibition at 200 ppm [6] | inhibition at 200 ppm [7] | inhibition at 200 ppm (Gaeumannomyces graminis) | inhibition at 200 ppm [9] | inhibition at 200 ppm [10]

CO/N=C(\C)c1cccc(CCCO/N=C2\CCCc3c2nc2ccccc2c3C)n1 [P.55]
≥ 80%: pest or weed control at 200 ppm [1] | pest or weed control at 200 ppm [2] | pest or weed control at 200 ppm [3] | pest or weed control at 200 ppm (Pyrenophora teres) | inhibition at 200 ppm [4] | inhibition at 200 ppm [5] | inhibition at 200 ppm [6] | inhibition at 200 ppm [7] | inhibition at 200 ppm (Gaeumannomyces graminis) | inhibition at 200 ppm [10] | pest or weed control at 200 ppm [8]

CO/N=C(\C)c1cccc(CCCO/N=C2\CCCc3ccc(OC)nc32)n1 [P.56]
≥ 80%: pest or weed control at 200 ppm [2] | pest or weed control at 200 ppm [3] | inhibition at 200 ppm [4] | inhibition at 200 ppm [5] | inhibition at 200 ppm [6] | inhibition at 200 ppm [7] | inhibition at 200 ppm (Gaeumannomyces graminis) | inhibition at 200 ppm [9] | inhibition at 200 ppm [10] | pest or weed control at 200 ppm [8]

CO/N=C(\C)c1cccc(CCCO/N=C2\CCCc3c2nc2cc(OC)ccc2c3C)n1 [P.69]
≥ 80%: pest or weed control at 200 ppm [1] | pest or weed control at 200 ppm [2] | pest or weed control at 200 ppm [3] | inhibition at 200 ppm [4] | inhibition at 200 ppm [5] | inhibition at 200 ppm [6] | inhibition at 200 ppm [7] | inhibition at 200 ppm (Gaeumannomyces graminis) | inhibition at 200 ppm [9] | inhibition at 200 ppm [10] | pest or weed control at 200 ppm [8]

CO/N=C(\C)c1cccc(CCCO/N=C2\CCCc3c2nc2ccccc2c3Cl)n1 [P.95]
≥ 80%: pest or weed control at 200 ppm [3] | pest or weed control at 200 ppm (Pyrenophora teres) | inhibition at 200 ppm [4] | inhibition at 200 ppm [5] | inhibition at 200 ppm [6] | inhibition at 200 ppm [7] | inhibition at 200 ppm (Gaeumannomyces graminis) | inhibition at 200 ppm [9] | inhibition at 200 ppm [10]

CO/N=C(\C)c1cc(OC)cc(CCCO/N=C(\C)c2cccc(C)n2)n1 [P.103]
≥ 80%: pest or weed control at 200 ppm [1] | pest or weed control at 200 ppm [2] | pest or weed control at 200 ppm [3] | pest or weed control at 200 ppm (Pyrenophora teres) | inhibition at 200 ppm [4] | inhibition at 200 ppm [5] | inhibition at 200 ppm [6] | inhibition at 200 ppm [7] | inhibition at 200 ppm (Gaeumannomyces graminis) | inhibition at 200 ppm [10] | pest or weed control at 200 ppm [8]
